This note sets out measurements from patent US9328106B2, “Cyclic ether pyrazol-4-yl-heterocyclyl-carboxamide compounds and methods of use” (Genentech, Inc., priority 2012, dated 2016).

The target of this experiment is PIM1 (Homo sapiens (Human), UniProt P11309). As to the kind of experiment: biochemical. Particulars: 20 pM PIM1, 1 μM FAM-peptide, 10 μM ATP, 90 minutes at room temperature; read-out: PIM1 LC3K (KI). It counts as biochemical.
Chain of PIM1 (P11309 whole entry): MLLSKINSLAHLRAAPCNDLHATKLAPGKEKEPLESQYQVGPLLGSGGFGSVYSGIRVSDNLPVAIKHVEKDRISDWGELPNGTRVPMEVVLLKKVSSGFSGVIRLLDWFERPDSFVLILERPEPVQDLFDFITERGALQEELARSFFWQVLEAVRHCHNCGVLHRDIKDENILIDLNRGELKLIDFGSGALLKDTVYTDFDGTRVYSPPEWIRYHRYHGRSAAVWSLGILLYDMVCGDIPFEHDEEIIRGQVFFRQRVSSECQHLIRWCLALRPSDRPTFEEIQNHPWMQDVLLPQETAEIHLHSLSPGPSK

In the case of `COc1ccc(F)c(-c2nc(C(=O)Nc3cnn(C)c3[C@@H]3CC[C@@H](N)[C@H](F)CO3)cs2)c1F` [Example 229, N-(5-((2S,5R,6S)-5-amino-6-fluorooxepan-2-yl)-1-methyl-1H-pyrazol-4-yl)-2-(2,6-difluoro-3-methoxyphenyl)thiazole-4-carboxamide], the Ki came out at 0.001 nM.
In the case of `Cn1ncc(NC(=O)c2nc(-c3c(F)cccc3F)sc2N)c1C1CC(F)(F)CC(N)CO1` (single isomer, unassigned) [Example 114, 5-amino-N-[5-(6-amino-4,4-difluoro-oxepan-2-yl)-1-methyl-pyrazol-4-yl]-2-(2,6-difluorophenyl)thiazole-4-carboxamide] it was 0.032 nM.
For the compound `Cn1ncc(NC(=O)c2csc(-c3cccc(F)c3F)n2)c1[C@@H]1CC[C@@H](N)[C@@H](F)CO1` [Example 245, N-(5-((2S,5R,6R)-5-amino-6-fluorooxepan-2-yl)-1-methyl-1H-pyrazol-4-yl)-2-(2,3-difluorophenyl)thiazole-4-carboxamide], the Ki stood at 0.104 nM.
The same measure for `Cn1ncc(NC(=O)c2csc(-n3ncc4ccccc43)n2)c1[C@@H]1CC[C@@H](N)[C@H](F)CO1` [Example 395, N-(5-((2S,5R,6S)-5-amino-6-fluorooxepan-2-yl)-1-methyl-1H-pyrazol-4-yl)-2-(1H-indazol-1-yl)thiazole-4-carboxamide]: 0.085 nM; for `CO[C@H]1CO[C@H](c2c(NC(=O)c3nc(-c4c(C)cccc4F)sc3N)cnn2C)CC[C@H]1N` [Example 269, 5-amino-N-(5-((2S,5R,6R)-5-amino-6-methoxyoxepan-2-yl)-1-methyl-1H-pyrazol-4-yl)-2-(2-fluoro-6-methylphenyl)thiazole-4-carboxamide]: 0.052 nM; for `Cn1ncc(NC(=O)c2nc(-c3c(F)cccc3F)sc2N)c1C1C[C@@H](N)[C@H](F)CCO1` (stereo partly drawn) [Example 141, 5-amino-N-(5-((4R,5R)-4-amino-5-fluorooxepan-2-yl)-1-methyl-1H-pyrazol-4-yl)-2-(2,6-difluorophenyl)thiazole-4-carboxamide]: 0.07 nM.
In the case of `Cn1ncc(NC(=O)c2csc(-c3cccc(F)c3-c3cccc(F)c3Cl)n2)c1[C@@H]1CC[C@@H](N)[C@@H](F)CO1` [Example 251, N-(5-((2S,5R,6R)-5-amino-6-fluorooxepan-2-yl)-1-methyl-1H-pyrazol-4-yl)-2-(2′-chloro-3′,6-difluoro-[1,1′-biphenyl]-2-yl)thiazole-4-carboxamide] it was 630 nM; in that of `Cn1ncc(NC(=O)c2nc(-c3c(F)cccc3F)sc2N)c1C1=CCCCO1` [Example 102, 5-amino-2-(2,6-difluorophenyl)-N-[5-(3,4-dihydro-2H-pyran-6-yl)-1-methyl-pyrazol-4-yl]thiazole-4-carboxamide], 0.408 nM.
On to `Cn1ncc(NC(=O)c2ccc(F)c(-c3c(F)cc(C(O)(CO)CO)cc3F)n2)c1[C@@H]1CC[C@@H](N)[C@@H](F)CO1` [Example 212, N-(5-((2S,5R,6R)-5-amino-6-fluorooxepan-2-yl)-1-methyl-1H-pyrazol-4-yl)-6-(2,6-difluoro-4-(1,2,3-trihydroxypropan-2-yl)phenyl)-5-fluoropicolinamide], for which the Ki stood at 0.162 nM.
As to `Cn1ncc(NC(=O)c2nc(-c3c(F)cccc3F)sc2N)c1[C@@H]1C[C@@H](F)[C@H](N)CCO1` (stereo in doubt) [Example 135, 5-amino-N-[5-(5-amino-4-fluoro-oxepan-2-yl)-1-methyl-pyrazol-4-yl]-2-(2,6-difluorophenyl)thiazole-4-carboxamide], the Ki amounted to 0.01 nM.
The same measure for `Cc1cccnc1-c1nc(C(=O)Nc2cnn(C)c2[C@@H]2CC[C@@H](N)[C@H](F)CO2)c(N)s1` [Example 398, 5-amino-N-[5-[(2S,5R,6S)-5-amino-6-fluoro-oxepan-2-yl]-1-methyl-pyrazol-4-yl]-2-(3-methyl-2-pyridyl)thiazole-4-carboxamide]: 0.004 nM; for `Cn1ncc(NC(=O)c2ccc(F)c(-c3cccc(F)c3Cl)n2)c1[C@@H]1CC[C@@H](N)[C@H](F)CO1` [Example 227, N-(5-((2S,5R,6S)-5-amino-6-fluorooxepan-2-yl)-1-methyl-1H-pyrazol-4-yl)-6-(2-chloro-3-fluorophenyl)-5-fluoropicolinamide]: 0.57 nM.
The same measure for `Cn1ncc(NC(=O)c2nc(-c3cccc(F)c3C(F)(F)F)sc2N)c1[C@@H]1CC[C@@H](N)[C@H](F)CO1` [Example 336, 5-amino-N-(5-((2S,5R,6S)-5-amino-6-fluorooxepan-2-yl)-1-methyl-1H-pyrazol-4-yl)-2-(3-fluoro-2-(trifluoromethyl)phenyl)thiazole-4-carboxamide]: 0.188 nM; for `CO[C@H]1CO[C@H](c2c(NC(=O)c3nc(-c4cc(C)ccc4F)sc3N)cnn2C)CC[C@H]1N` [Example 264, 5-amino-N-(5-((2S,5R,6R)-5-amino-6-methoxyoxepan-2-yl)-1-methyl-1H-pyrazol-4-yl)-2-(2-fluoro-5-methylphenyl)thiazole-4-carboxamide]: 0.02 nM; for `Cn1ncc(NC(=O)c2nc(-c3c(F)cccc3F)sc2N)c1C1CCC(O)CCO1` (centres unmarked) [Example 134, 5-amino-2-(2,6-difluorophenyl)-N-[5-(5-hydroxyoxepan-2-yl)-1-methyl-pyrazol-4-yl]thiazole-4-carboxamide]: 0.054 nM.
For the compound `Cn1ncc(NC(=O)c2nc(-c3cccc(C(F)(F)F)c3F)sc2N)c1[C@@H]1CC[C@@H](N)[C@H](F)CO1` [Example 156, 5-amino-N-(5-((2S,5R,6S)-5-amino-6-fluorooxepan-2-yl)-1-methyl-1H-pyrazol-4-yl)-2-(2-fluoro-3-(trifluoromethyl)phenyl)thiazole-4-carboxamide], the Ki was 0.107 nM.
In the case of `CO[C@H]1CO[C@H](c2c(NC(=O)c3nc(-c4ccccc4F)sc3N)cnn2C)CC[C@H]1N` [Example 183, 5-Amino-N-[5-[(2S,5R,6R)-5-amino-6-methoxy-oxepan-2-yl]-1-methyl-pyrazol-4-yl]-2-(2-fluorophenyl)thiazole-4-carboxamide] it was 0.0143 nM; in that of `Cn1ncc(NC(=O)c2nc(-c3c(F)cccc3F)sc2N)c1[C@H]1CC[C@H](F)[C@@H](N)CO1` [Example 153, 5-Amino-N-[5-[(2R,5S,6S)-6-amino-5-fluoro-oxepan-2-yl]-1-methyl-pyrazol-4-yl]-2-(2,6-difluorophenyl)thiazole-4-carboxamide], 0.114 nM; in that of `Cn1ncc(NC(=O)c2ccc(F)c(-c3c(F)cc(C(C)(C)O)cc3F)n2)c1[C@@H]1CC[C@@H](N)[C@@H](F)CO1` [Example 289, N-(5-((2S,5R,6R)-5-amino-6-fluorooxepan-2-yl)-1-methyl-1H-pyrazol-4-yl)-6-(2,6-difluoro-4-(2-hydroxypropan-2-yl)phenyl)-5-fluoropicolinamide], 0.08 nM.
The same measure for `CCc1ccc(F)c(-c2nc(C(=O)Nc3cnn(C)c3[C@@H]3CC[C@@H](N)[C@H](F)CO3)cs2)c1` [Example 307, N-(5-((2S,5R,6S)-5-amino-6-fluorooxepan-2-yl)-1-methyl-1H-pyrazol-4-yl)-2-(5-ethyl-2-fluorophenyl)thiazole-4-carboxamide]: 0.081 nM.
